# Measurements reported in publication PMC9234671, “Molecular determinants of αVβ5 localization in flat clathrin lattices – role of αVβ5 in cell adhesion and proliferation” (Journal of Cell Science, 2022).
# What was measured:
# Assay type in all cases: cell-based, human
# [1] = system: integrin β5 localization in PA-JEB/β4 keratinocytes; test: Immunofluorescence: integrin β5 clustering in FAs/FCLs, PA-JEB/β4
# Description: (§1) Fig. 3. Serine 759 and 762 are involved in regulating the localization of integrin β5. (A–C) Integrin β5 containing S759/762E or S759/762A mutations (A) were expressed in β5-deficient PA-JEB/β4 keratinocytes and the subcellular distribution of β5 was compared to β5-deficient keratinocytes expressing wild-type (WT) β5. Merged images show integrin β5 (green), vinculin (B) or clathrin (C) (red), actin (blue) and the cell nuclei (cyan). (D,E) Analysis of wild-type versus mutant integrin β5 clustering in FAs or FCLs. (F–I) PA-JEB/β4 keratinocytes were grown in 10% FCS-supplemented DMEM culture medium overnight and then treated with 5 nM calyculin A (Cal.A) or DMSO (vehicle control) for 30 min prior to fixation. Merged images show integrin β5 (green), vinculin (F) or clathrin (H) (red), actin (blue) and the cell nuclei (cyan), quantifications of β5 clustering in FAs or FCLs are shown in G,I. (J,K) Analysis of integrin β5 clustering in FAs or FCLs in PA-JEB keratinocytes after treatment with Cal.A. Representative confocal microscopy images are shown in Fig. S3. Scale bars: 20 μm. Data were obtained from three independent experiments. Total cells analyzed per condition: 109 (WT), 116 (S>E), 103 (S>A) (D), 81 (WT), 77 (S>E), 101 (S>A) (E), 126 and 123 (G), 111 and 101 (I), 106 and 102 (J), 115 and 109 (K). ****P<0.0001 (Mann–Whitney U-test). Box plots range from the 25th to 75th percentile; central line indicates the median; whiskers show smallest to largest value.
# PA-JEB/β4 keratinocytes were seeded on glass coverslips and cultured in complete KGM medium for 24 h, and then treated with DMEM plus 10% FCS for 24 h. Other cell lines were seeded on glass coverslips and cultured in DMEM plus 10% FCS. Cells were fixed with 2% paraformaldehyde (PFA) for 10 min, permeabilized with 0.2% Triton X-100 for 5 min, and blocked with PBS containing 2% bovine serum albumin (BSA; Sigma) for at least 30 min. Next, cells were incubated with the primary antibodies for 1 h at room temperature. Cells were washed three times before incubation with the secondary antibodies for 1 h. Additionally, nuclei were stained with DAPI, and filamentous actin was visualized using Alexa Fluor 488 or 647-conjugated phalloidin (Invitrogen). After three washing steps with PBS, the coverslips were mounted onto glass slides in Mowiol. Images were obtained using a Leica TCS SP5 confocal microscope with a 63× (NA 1.4) oil objective.
# Image analysis was performed using Fiji (ImageJ) ([Schindelin et al., 2012]; [Schneider et al., 2012]). To quantify integrin clustering in FAs (based on vinculin staining) versus FCLs (clathrin staining), background was subtracted in both channels using a bilateral filter and the region of interest (ROI) was selected at the cell periphery. Colocalization of integrin clusters and FAs or FCLs was determined using the Image Calculator (command ‘multiply’) on both channels and calculating the area of overlapping clusters as a percentage of the total integrin cluster area per cell using the Analyze Particle function.
# [2] = system: integrin β5 localization in PA-JEB keratinocytes; test: Immunofluorescence: integrin β5 clustering in FAs/FCLs, PA-JEB; conditions: 5 nM calyculin A versus DMSO, 30 min, 10% FCS DMEM, three independent experiments
# Description: as §1, with “Box plots range from the 25th to 75th percentile; central line indicates the median; whiskers show smallest to largest value.” left out
# [3] = system: GEF-H1 (phospho S886) in PA-JEB and PA-JEB/β4 keratinocytes; test: Western blot: GEF-H1 phosphorylation; conditions: after calyculin A, n=3
# Experimental: Proteins were separated by electrophoresis using a Bolt Novex 4–12% gradient Bis-Tris gels (Invitrogen) or 15% SDS-PAGE gels (made in-house), transferred to Immobilon-P transfer membranes (Millipore Corp) and blocked for at least 30 min in 2% BSA in TBST buffer (10 mM Tris-HCl pH 7.5, 150 mM NaCl and 0.3% Tween-20). Primary antibody (diluted 1:1000 in 2% BSA in TBST buffer) incubation took place overnight at 4°C. After washing twice with TBST and twice with TBS, blots were incubated for 1 h hour at room temperature with horseradish peroxidase-conjugated goat anti-mouse-IgG or goat anti-rabbit-IgG (diluted 1:3000 in 2% BSA in TBST buffer). After subsequent washing steps, the bound antibodies were detected by enhanced chemiluminescence using SuperSignal™ West Dura Extended Duration Substrate (ThermoFisher) or Clarity™ Western ECL Substrate (Bio-Rad) as described by the manufacturer. Signal intensities were quantified using ImageJ.
# Fig. S4. (A) Representative western blots of phosphorylated myosin light chain (MLC) and GAPDH in PA-JEB/β4 keratinocytes treated with DMSO versus Nocodazole. […]
# μm. Quantifications of β5 or β5 mutants clustering in FAs are shown in (C-E). […] Total cells analyzed per condition: 90 (WT, DMSO), 111 (WT, Noco.) (C), 40 (S>E, DMSO), 80 (S>E, Noco.) (D), 65 (S>A, DMSO), 82 (S>A, Noco.) (E). […]
smiles,measurement,setting,value
COC[C@@H]([C@H](O)[C@H](O)C(=O)NCC[C@H](C)c1nc(/C=C/C[C@@H]2O[C@]3(C[C@@H](O)[C@@H]2C)O[C@H]([C@H](C[C@H](O)[C@H](C)[C@H](O)[C@H](C)/C=C(C)/C(C)=C/C=C/C(C)=C\C#N)OC)[C@H](OP(=O)(O)O)C3(C)C)co1)N(C)C [calyculin A],"localization of integrin β5 in FAs, PA-JEB/β4","[1]; 5 nM calyculin A versus DMSO, 30 min, 10% FCS DMEM, colocalization with vinculin, three independent experiments",decreased the localization of integrin β5 in FAs
same,redistribution of the integrin,"[1]; calyculin A treatment, summary in discussion",only led to a minor redistribution of the integrin
same,"localization of integrin β5 in FCLs, PA-JEB",[2]; colocalization with clathrin,increased the localization in FCLs
same,"localization of integrin β5 in FAs, PA-JEB",[2]; colocalization with vinculin,reduced the localization of integrin β5 in FAs
same,phosphorylation of GEF-H1,[3],increase in the phosphorylation of GEF-H1
